# Key:
# Type in all cases: cell-based
# Conditions in all cases: 37° C.
# [1] = tested on: E. coli strain TG1 (pYDDG1); test: Growth on M9 glucose minimal agar plates containing inhibitor, strain TG1 (pYDDG1)
# Method: (§1) The pYDDG1 and pYDDG2 plasmids and the pUC19 and pAYCTER3 vectors were introduced into E. coli strain TG1. Thus the strains TG1 (pYDDG1), TG1 (pYDDG2), TG1 (pUC19) and TG1 (pAYCTER3) were obtained.
# (§2) Then the ability of these strains to grow in the presence of amino acids and amino acid analogues for each strain were determined on M9 glucose minimal agar plates containing graded concentrations of inhibitor. The plates were spotted with 10^6 to 10^7 cells from an overnight culture grown in a minimal medium (supplemented with 100 μg/ml of ampicillin for plasmid strains). The growth was estimated after 44 h incubation at 37° C.
# [2] = tested on: E. coli strain TG1 (pYDDG2); test: Growth on M9 glucose minimal agar plates containing inhibitor, strain TG1 (pYDDG2)
# Method: as §1, §2
# [3] = tested on: E. coli strain TG1 (pUC19); test: Growth on M9 glucose minimal agar plates containing inhibitor, strain TG1 (pUC19)
# Method: as §1, §2
# Note: key: +: good growth; ±: pour growth; −: no growth.
smiles,measurement,setting,value
N[C@@H](Cc1ccccc1)C(=O)O [L-phenylalanine],Growth after 44 h TG1 (pYDDG1),[1]; substrate 20.0 mg/ml,+
same,Growth after 44 h TG1 (pYDDG2),[2]; substrate 20.0 mg/ml,±
same,Growth after 44 h TG1 (pUC19),[3]; substrate 20.0 mg/ml,−
NC(Cc1c[nH]c2ccc(F)cc12)C(=O)O (racemic) [5-fluoro-DL-tryptophane],Growth after 44 h TG1 (pYDDG1),[1]; substrate 0.0005 mg/ml,+
same,Growth after 44 h TG1 (pUC19),[3]; substrate 0.0005 mg/ml,−
NC(Cc1ccc(F)cc1)C(=O)O (racemic) [p-fluoro-DL-phenylalanine],Growth after 44 h TG1 (pYDDG1),[1]; substrate 1.0 mg/ml,+
same,Growth after 44 h TG1 (pYDDG1),[1]; substrate 2.0 mg/ml,+
same,Growth after 44 h TG1 (pYDDG2),[2]; substrate 1.0 mg/ml,+
same,Growth after 44 h TG1 (pYDDG2),[2]; substrate 2.0 mg/ml,−
same,Growth after 44 h TG1 (pUC19),[3]; substrate 1.0 mg/ml,−
same,Growth after 44 h TG1 (pUC19),[3]; substrate 2.0 mg/ml,−

# From patent publication US7935506B2, “Method for producing a lower alkyl ester of α-L-aspartyl-L-phenylalanine” (priority 2001, dated 2011)
